Assay results reported in patent US20230365938A1, “METHODS OF FORMING COMPOSITIONS CONTAINING COLLAGEN” (priority 2019, published 2023).

Assays:
[1] = system: Human mesenchymal stem cells (hMSC); test: Cell proliferation (MTS) of hMSC treated with RSV, NAM or RSV+NAM; assay type: cell-based; details: 48 hours, serum-free media, normoxia, increasing dose, vs DMSO control
Experimental: Human mesenchymal stem cells (hMSC) were obtained from American Type Culture Collection (ATCC, Manassas, VA). Cells were stored in liquid nitrogen until use. MSCs were maintained in minimum essential medium, alpha (aMEM, Corning®, Corning, NY) supplemented with 16% Fetal Bovine Serum (FBS, VWR, Radnor, PA) and 4 mM L-glutamine (Sigma-Aldrich, St. Louis, MO). Medium was changed every other day, and once the cells reached 70-80% confluence, the cells were detached by trypsin-EDTA solution (VWR, Radnor, PA). hMSC were seeded (density 5,000 cells/cm^2) on 25 cm^2. When cells reached 80% confluency (4-5 days), they were washed two times with 5 ml of PBS. The growth media was then changed to serum-free media with or without a product treatment (5 ml), and the cells were cultured for 48 hours. […] Cell proliferation was assessed using CellTiter 96® AQueous Non-Radioactive Cell Proliferation Assay (MTS, Promega, Madison WI) based on the redox conversion of a tetrazolium salt into formazan product. […] The cells were incubated for 2 hours, and the absorbance of each well at 490 nm was measured using a SpectraMax® 190 Microplate Reader. Cell proliferation was determined using MTS, colorimetric assay after the cells were treated for 48 hours in serum free media with the vehicle (DMSO) as control, resveratrol (RSV), nicotinamide (NAM), or a combination (RSV+NAM) in serum-free media under normoxia. […]

[2] = system: hMSC secretome; test: LC-MS/MS analysis of secreted proteins in the secretome; assay type: cell-based, human; details: n=4; for number of down-regulated proteins (Fold ≤ 1.5) vs control / number of up-regulated proteins (Fold ≥ 1.5) vs control: vs DMSO under normoxia
Experimental: Human mesenchymal stem cells (hMSC) were obtained from American Type Culture Collection (ATCC, Manassas, VA). Cells were stored in liquid nitrogen until use. MSCs were maintained in minimum essential medium, alpha (aMEM, Corning®, Corning, NY) supplemented with 16% Fetal Bovine Serum (FBS, VWR, Radnor, PA) and 4 mM L-glutamine (Sigma-Aldrich, St. Louis, MO). Medium was changed every other day, and once the cells reached 70-80% confluence, the cells were detached by trypsin-EDTA solution (VWR, Radnor, PA). hMSC were seeded (density 5,000 cells/cm^2) on 25 cm^2. When cells reached 80% confluency (4-5 days), they were washed two times with 5 ml of PBS. The growth media was then changed to serum-free media with or without a product treatment (5 ml), and the cells were cultured for 48 hours. Experiments were performed in two different environments, normoxia (about 18.6% oxygen) and hypoxia (5% oxygen). Cells were incubated at 37° C. and 5% CO2 throughout the experiment.
To characterize the hMSC secretome, condition media (CM or secretome) was collected from cells cultured under FBS-free for 48 hours. CM was filtered through a 0.45 μm syringe filter to remove residual cells and cell debris. The resulting condition media was concentrated and washed 3 times with 50 mM ammonium bicarbonate using Corning® Spin-X® UF Concentrators (10K Dalton, Corning®, Corning, NY) at 3,000 g for 25 minutes each cycle. Following, the secretome was collected from the concentrator, frozen at −80° C., and lyophilized 24 hours. Lyophilized secretome was stored at −80° C. For functional experiments with CM, normal hMSCs (passages 6-8) were used.
The amount of secretome was normalized in all samples, and 50 μl of the sample were pipetted in microcentrifuge units (Millipore, Burlington, MA) and digested following the filter aided sample preparation (FASP) protein digestion kit from Expedeon (San Diego, CA). Samples were reduced using 0.1 M dithiothreitol for 15 minutes at 50° C. […] was achieved using iodoacetamide for 20 minutes at room temperature following by 2× washing steps with 8 M urea and 50 mM ammonium bicarbonate. The samples were then enzymatically digested with trypsin at 37° C. overnight. Finally, samples were collected by spinning the microcentrifuge units at 14000 rcf for 20 minutes with a final wash with distilled water and freeze-dried. Prior to LC-MS/MS analysis, samples were resuspended in 0.1% formic acid.
Mass spectrometry analysis was executed in the orbitrap Thermo Velos Pro system (Thermo Fisher Scientific, Waltman, MA) using Thermo Xcalibur™ Roadmap software (Thermo Fisher Scientific, Waltman, MA). For this study, secretome from 4 independent experiments were processed and analyzed independently.
Mass spectra were analyzed using Proteome Discoverer™ 2.1 (Thermo Fisher Scientific, Waltman, MA) label-free differential protein expression analysis and the Sequest™ HT. Xcalibur™ raw data collected from the mass spectrometer was imported from the MS spectra and processed as followed. Only features compromising charges of 2+ and 3+ were selected. The mass precision was 2 ppm and mass tolerance 0.02 Da for fragment mass tolerance. Trypsin was set as the digestion enzyme with a maximum of two allowed missed cleavages with six as the minimum peptide length. Cysteine carbamidomethylation (C) was set as a fixed modification, and N-terminal acetylation and methionine oxidation were allowed as variable modifications. The spectra were searched using the Sequest™ HT search engine against the human Uniprot sequence database. Percolator node was used to filter data using 0.1 for FDR at the peptide and protein level. For relative quantification in a label-free analysis, the precursor ion area detector node was used, and ratios were calculated by dividing the treated samples vs. the control group (DMSO under normoxia). […]

| Structure (SMILES) | cell proliferation (MTS) versus control [1] | Total proteins (number of proteins secreted) ([2]; Hypoxia (5% O2)) | Unique vs control (number of unique proteins) ([2]; Hypoxia (5% O2)) | number of down-regulated proteins (Fold ≤ 1.5) vs control ([2]; Hypoxia (5% O2)) | number of up-regulated proteins (Fold ≥ 1.5) vs control ([2]; Hypoxia (5% O2)) | Total proteins (number of proteins secreted) ([2]; Normoxia) | Unique vs control (number of unique proteins) ([2]; Normoxia) | number of down-regulated proteins (Fold ≤ 1.5) vs control ([2]; Normoxia) | number of up-regulated proteins (Fold ≥ 1.5) vs control ([2]; Normoxia) |
| --- | --- | --- | --- | --- | --- | --- | --- | --- | --- |
| Oc1ccc(/C=C/c2cc(O)cc(O)c2)cc1 [RSV, 3,5,4′-trihydroxy-trans-stilbene] | not a significant difference | 55 | 2 | 0 | 30 | 51 | 2 | 3 | 7 |
| NC(=O)c1cccnc1 [nicotinamide] | not a significant difference | – | – | – | – | – | – | – | – |
